Measurements as given in USRE46511E1, “Fused pyrimidine derivatives for inhibition of tyrosine kinase activity” (HANMI SCIENCE CO., LTD., priority 2010, dated 2017).

Assays:
[1] = test system: A431 (EGFR WT); test: Inhibition test for growth of cancer cell expressing EGFR (SRB), A431; assay type: cell-based; conditions: Homo sapiens, A-431; A431 cells, 72 hours, SRB; read-out: GI50 A431 EGFR WT;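 note: cells in 96-well plates exposed to tenfold serial dilutions from 100 µM down to 10^−6 µM, DMSO under 1%, SRB staining read as absorbance at 540 nm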
Procedure: A431 cell line was incubated in a high-glucose DMEM (Dulbecco's Modified Eagle's Medium) supplemented with 10% fetal bovine serum (FBS) and 1% penicillin/streptomycin (Gibco BRL), and HCC827 and NCI-H1975 cell lines were incubated in an RPMI medium supplemented with 10% FBS, 1% penicillin/streptomycin and 1% sodium pyruvate.
The cancer cell lines stored in a liquid nitrogen tank were each quickly thawed at 37° C., and centrifuged to remove the medium. The resulting cell pellet was mixed with a culture medium, incubated in a culture flask at 37° C. under 5% CO2 for 2 to 3 days, and the medium was removed. The remaining cells were washed with DPBS (Dulbecco's Phosphate Buffered Saline) and separated from the flask by using Tripsin-EDTA. […] 100 μl of the diluted cell solution was added to each well of a 96-well plate, and incubated at 37° C. under 5% CO2 for 1 day.
In case that the test compound was not soluble in DMSO, 1% HCl was added thereto and treated in a 40° C. water bath for 30 mins until a complete dissolution was attained. The DMSO solution containing test compound was diluted with a culture medium to a final concentration of 100 μM, and then diluted 10 times serially to 10^−6 μM (a final concentration of DMSO was less than 1%).
The medium was removed from each well of the 96-well plate. And then, 100 μl of a test compound solution was added to each well holding the cultured cells, and the plate was incubated at 37° C. under 5% CO2 for 72 hours (except that NCI-H1975 cells were incubated for 48 hours). After removing the medium from the plate, 50 μA of 10% trichloroacetic acid was added to each well, and the plate was kept at 4° C. for 1 hour to fix the cells to the bottom of the plate. The added 10% trichloroacetic acid solution was removed from each well, the plate was dried, 100 μA of an SRB (Sulforhodamine-B) dye solution at a concentration of 0.4% dissolved in 1% acetic acid was added thereto, and the resulting mixture was reacted for 10 mins at room temperature. After removing the dye solution, the plate was washed with water, and well dried. When the dye solution was not effectively removed by water, 1% acetic acid was used. 150 μA of 10 mM trisma base was added to each well, and the absorbance at 540 nm wavelength was determined with a microplate reader.

[2] = target: T1, BMX (Homo sapiens, UniProt P51813); test: z-lyte kinase assay, BMX; assay type: biochemical
T1 construct: purchased Invitrogen
T1 sequence (P51813 1-675): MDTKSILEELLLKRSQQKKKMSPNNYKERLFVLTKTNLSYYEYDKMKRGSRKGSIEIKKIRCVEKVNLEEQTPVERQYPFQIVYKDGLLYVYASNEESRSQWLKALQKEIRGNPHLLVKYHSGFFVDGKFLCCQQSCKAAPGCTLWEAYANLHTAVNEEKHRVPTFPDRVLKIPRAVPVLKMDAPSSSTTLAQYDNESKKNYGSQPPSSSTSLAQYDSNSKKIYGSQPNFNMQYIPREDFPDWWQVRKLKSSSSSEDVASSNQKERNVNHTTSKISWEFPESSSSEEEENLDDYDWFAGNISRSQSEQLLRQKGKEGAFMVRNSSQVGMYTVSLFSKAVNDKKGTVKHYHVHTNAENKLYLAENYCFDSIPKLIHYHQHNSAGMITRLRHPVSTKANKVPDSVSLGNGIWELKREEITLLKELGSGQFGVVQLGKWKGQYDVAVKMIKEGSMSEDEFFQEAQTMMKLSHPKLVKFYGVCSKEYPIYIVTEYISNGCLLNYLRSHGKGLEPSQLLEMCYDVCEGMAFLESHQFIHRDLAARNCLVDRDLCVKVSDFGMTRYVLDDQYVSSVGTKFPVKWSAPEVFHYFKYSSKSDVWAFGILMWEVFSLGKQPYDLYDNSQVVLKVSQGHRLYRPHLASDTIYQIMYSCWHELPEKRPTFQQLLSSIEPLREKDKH

[3] = target: T2, BTK (Homo sapiens, UniProt Q06187); test: z-lyte kinase assay, BTK; assay type: biochemical
T2 construct: purchased Invitrogen
T2 sequence (Q06187 whole entry): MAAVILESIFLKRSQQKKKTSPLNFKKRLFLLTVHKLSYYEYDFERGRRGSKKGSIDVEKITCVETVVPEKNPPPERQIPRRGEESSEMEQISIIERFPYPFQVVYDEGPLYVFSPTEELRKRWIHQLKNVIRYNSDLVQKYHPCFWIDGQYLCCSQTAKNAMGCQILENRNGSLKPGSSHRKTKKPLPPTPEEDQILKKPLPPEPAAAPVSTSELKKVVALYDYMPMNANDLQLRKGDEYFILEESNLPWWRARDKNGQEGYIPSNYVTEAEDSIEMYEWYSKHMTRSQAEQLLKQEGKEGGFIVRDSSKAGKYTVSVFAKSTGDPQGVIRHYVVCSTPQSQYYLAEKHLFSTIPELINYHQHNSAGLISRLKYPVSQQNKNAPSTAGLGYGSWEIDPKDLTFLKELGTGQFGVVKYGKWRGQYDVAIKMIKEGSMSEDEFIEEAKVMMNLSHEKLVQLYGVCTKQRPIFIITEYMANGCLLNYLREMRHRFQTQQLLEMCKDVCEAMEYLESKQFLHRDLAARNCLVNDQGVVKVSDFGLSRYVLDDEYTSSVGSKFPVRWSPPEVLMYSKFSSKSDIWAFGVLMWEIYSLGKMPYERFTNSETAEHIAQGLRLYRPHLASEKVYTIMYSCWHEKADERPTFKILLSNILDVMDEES
Summary of the method: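 Each kinase was mixed with peptide substrate, compound (dilution series made at 1–0.0001 μM in 4% DMSO) and ATP added from a 5~300 μM solution, then incubated 60 min at RT. After development reagent and stop solution, fluorescence was read at 400 nm excitation/520 nm emission and IC50 calculated.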

[4] = target: T3, ITK (Homo sapiens, UniProt Q08881); test: z-lyte kinase assay, ITK; assay type: biochemical
T3 construct: purchased Invitrogen
T3 sequence (Q08881 1-620): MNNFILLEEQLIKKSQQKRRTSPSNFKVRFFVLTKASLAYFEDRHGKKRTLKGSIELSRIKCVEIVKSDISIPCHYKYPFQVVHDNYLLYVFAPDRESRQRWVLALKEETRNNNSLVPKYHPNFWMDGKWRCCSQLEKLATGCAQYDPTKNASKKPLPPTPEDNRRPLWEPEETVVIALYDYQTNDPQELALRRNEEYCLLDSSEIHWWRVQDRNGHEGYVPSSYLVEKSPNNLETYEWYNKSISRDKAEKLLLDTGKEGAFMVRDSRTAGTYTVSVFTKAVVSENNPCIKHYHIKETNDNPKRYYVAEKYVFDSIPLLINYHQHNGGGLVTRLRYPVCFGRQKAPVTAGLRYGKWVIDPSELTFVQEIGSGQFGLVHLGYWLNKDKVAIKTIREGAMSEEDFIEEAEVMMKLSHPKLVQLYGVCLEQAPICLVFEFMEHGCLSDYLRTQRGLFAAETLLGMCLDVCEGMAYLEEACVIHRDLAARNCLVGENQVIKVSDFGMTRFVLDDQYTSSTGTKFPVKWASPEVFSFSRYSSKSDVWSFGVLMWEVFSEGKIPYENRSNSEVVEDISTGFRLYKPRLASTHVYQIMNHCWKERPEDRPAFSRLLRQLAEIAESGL

GI50 [1]: > 1000 nM
IC50 [2]: ≤ 50 nM
IC50 [3]: ≤ 50 nM
IC50 [4]: 50 to 100 nM
Compound: C=CC(=O)Nc1cccc(Oc2nc(Nc3ccc(N4CCN(C)CC4)cc3)nc3ccsc23)c1 [Example 1, N-(3-(2-(4-(4-methylpiperazin-1-yl)phenylamino)thieno[3,2-d]pyrimidine-4-yloxy)phenyl)acrylamide]
